Like-named read-outs stand apart in the source and are kept apart here.
How the values were obtained:
[1] = system: Micromonospora chokoriensis amino acid hydroxylase McPH (L-pipecolic acid 5-hydroxylase), wild type, SEQ ID NO: 2; assay type: biochemical
[2] = molecular target: T1, Xenorhabdus doucetiae FRM16 L-proline cis-4-hydroxylase XdPH, SEQ ID NO: 8 (Xenorhabdus doucetiae, UniProt A0A068QPC1); assay type: biochemical; details: for kcat: calculated from Vmax and molecular weight
T1 sequence (A0A068QPC1 1-294): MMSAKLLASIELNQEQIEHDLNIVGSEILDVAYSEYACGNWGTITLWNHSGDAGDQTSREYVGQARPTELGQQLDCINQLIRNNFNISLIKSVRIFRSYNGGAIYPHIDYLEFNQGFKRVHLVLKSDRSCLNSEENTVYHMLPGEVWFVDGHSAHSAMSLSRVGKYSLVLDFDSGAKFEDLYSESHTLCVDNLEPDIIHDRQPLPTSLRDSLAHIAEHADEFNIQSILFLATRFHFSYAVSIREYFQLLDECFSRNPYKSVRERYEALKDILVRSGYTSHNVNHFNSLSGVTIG

[3] = molecular target: Sinorhizobium meliloti 1021 L-proline cis-4-hydroxylase SmPH, SEQ ID NO: 10 (Sinorhizobium meliloti, UniProt Q92LF6); assay type: biochemical; details: for kcat: calculated from Vmax and molecular weight
[4] = system: Kordia jejudonensis amino acid hydroxylase KjPH, SEQ ID NO: 18; assay type: biochemical; details: for Km / Vmax: 20 mmol/L 2-oxoglutaric acid, 30° C.; for kcat: calculated from Vmax and molecular weight
[5] = molecular target: Gibberella zeae PH-1 L-pipecolic acid trans-4-hydroxylase GzPH, SEQ ID NO: 16 (Fusarium graminearum, UniProt I1RHG1)
[6] = molecular target: Colletotrichum gloeosporioides Nara qc5 L-pipecolic acid trans-4-hydroxylase CgPH, SEQ ID NO: 12 (Colletotrichum fructicola, UniProt L2G7W2)
[7] = molecular target: Segniliparus rugosus ATCC BAA-974 L-pipecolic acid cis-5-hydroxylase SruPH, SEQ ID NO: 4 (Segniliparus rugosus, UniProt E5XT07); details: for Vmax: 20 mmol/L 2-oxoglutaric acid, 30° C.; for kcat: calculated from Vmax and molecular weight
[8] = molecular target: T2, Catenulispora acidiphila NBRC102108 L-proline cis-4-hydroxylase CaPH, SEQ ID NO: 6 (Catenulispora acidiphila, UniProt C7Q927); assay type: biochemical; details: substrate: L-proline; calculated from Vmax and molecular weight
T2 sequence (C7Q927 1-290): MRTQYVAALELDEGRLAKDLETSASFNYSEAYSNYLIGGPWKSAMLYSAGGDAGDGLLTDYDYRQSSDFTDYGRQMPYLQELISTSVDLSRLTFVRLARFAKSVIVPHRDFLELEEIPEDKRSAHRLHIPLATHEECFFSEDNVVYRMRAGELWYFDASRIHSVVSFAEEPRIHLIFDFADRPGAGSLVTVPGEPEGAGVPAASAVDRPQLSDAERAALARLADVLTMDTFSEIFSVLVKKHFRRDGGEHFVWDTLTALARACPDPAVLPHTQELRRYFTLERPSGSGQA

[9] = substrate: L-pipecolic acid, 20 mmol/L 2-oxoglutaric acid, 30° C.
[10] = substrate: L-pipecolic acid, calculated from Vmax and molecular weight
[11] = substrate: L-proline, 20 mmol/L 2-oxoglutaric acid, 30° C.

**Q.** With `O=C(O)[C@@H]1CCCCN1` [L-pipecolic acid] as the molecule, how does the Km [1, 9] read?
**A.** 240 µM

**Q.** What about the Vmax [1, 9] of the same molecule?
**A.** 0.06 U/mg-protein

**Q.** What about the kcat [1, 10] of the same molecule?
**A.** 0.03

**Q.** And the kcat ([2]; substrate: L-pipecolic acid)?
**A.** 0.64

**Q.** And the kcat ([3]; substrate: L-pipecolic acid)?
**A.** 0.02

**Q.** What about the Km ([4]; substrate: L-pipecolic acid) of the same molecule?
**A.** 490 µM

**Q.** And the Vmax ([4]; substrate: L-pipecolic acid)?
**A.** 0.30 U/mg-protein

**Q.** What about the kcat ([4]; substrate: L-pipecolic acid) of the same molecule?
**A.** 0.16

**Q.** And the Vmax [5, 9]?
**A.** 114.94 U/mg-protein

**Q.** What about the kcat [5, 10] of the same molecule?
**A.** 72.48

**Q.** What about the Vmax [6, 9] of the same molecule?
**A.** 70.42 U/mg-protein

**Q.** And the kcat [6, 10]?
**A.** 43.80

**Q.** And the Vmax ([7]; substrate: L-pipecolic acid)?
**A.** 0.05 U/mg-protein

**Q.** And the kcat ([7]; substrate: L-pipecolic acid)?
**A.** 0.03

**Q.** What does the source list for `O=C(O)[C@@H]1CCCN1` [L-proline]?
**A.** catalytic reaction efficiency for L-proline relative to that for L-pipecolic acid ([1]; kcat/Km ratio): 0; kcat [8]: 0.01; catalytic reaction efficiency for L-proline relative to that for L-pipecolic acid ([2]; kcat/Km ratio): 119%; Vmax [2, 11]: 1.44 U/mg-protein; kcat ([2]; substrate: L-proline): 0.80; catalytic reaction efficiency for L-proline relative to that for L-pipecolic acid ([3]; kcat/Km ratio): 114%; Vmax [3, 11]: 0.06 U/mg-protein; kcat ([3]; substrate: L-proline): 0.03; catalytic reaction efficiency for L-proline relative to that for L-pipecolic acid ([4]; kcat/Km ratio): 115%; Km ([4]; substrate: L-proline): 480 µM; Vmax ([4]; substrate: L-proline): 0.34 U/mg-protein; kcat ([4]; substrate: L-proline): 0.18; catalytic reaction efficiency for L-proline relative to that for L-pipecolic acid ([5]; kcat/Km ratio): 0; catalytic reaction efficiency for L-proline relative to that for L-pipecolic acid ([6]; kcat/Km ratio): 0; catalytic reaction efficiency for L-proline relative to that for L-pipecolic acid ([7]; kcat/Km ratio): 754%; Vmax ([7]; substrate: L-proline): 0.13 U/mg-protein; kcat ([7]; substrate: L-proline): 0.07
